These results are taken from US7741327B2 (Hoffmann-La Roche Inc., priority 2008, dated 2010).

Molecules are shown by their SMILES.

The assay addresses T1, Recombinant human liver GK1 (GST-GK) (Homo sapiens, UniProt P35557).
T1 construct: made in house; host or cells: E. coli
T1 sequence (P35557 1-466 isoform P35557-2): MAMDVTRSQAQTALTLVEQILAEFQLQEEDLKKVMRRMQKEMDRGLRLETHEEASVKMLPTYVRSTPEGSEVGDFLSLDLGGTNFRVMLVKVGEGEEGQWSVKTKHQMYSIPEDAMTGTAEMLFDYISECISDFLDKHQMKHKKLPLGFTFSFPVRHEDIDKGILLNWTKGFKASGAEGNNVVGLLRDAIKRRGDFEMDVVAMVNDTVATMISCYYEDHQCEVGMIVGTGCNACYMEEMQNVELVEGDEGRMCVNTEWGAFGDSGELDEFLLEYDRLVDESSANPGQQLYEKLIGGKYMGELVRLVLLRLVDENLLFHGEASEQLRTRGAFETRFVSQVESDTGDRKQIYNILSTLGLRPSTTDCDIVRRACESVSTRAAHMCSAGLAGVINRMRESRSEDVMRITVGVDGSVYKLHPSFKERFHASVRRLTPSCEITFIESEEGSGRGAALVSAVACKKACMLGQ
As to the kind of experiment: In vitro glucokinase activity (G6PDH-coupled NADH assay). Format: biochemical. To be noted: 30° C., 5 mM D-glucose, 10% DMSO. An outline of the steps: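 GST-tagged human liver GK1 from E. coli, assayed at 30° C in 25 mM Hepes pH 7.1 with 5 mM D-glucose, 1 mM ATP, 1.8 mM NAD and G6PDH coupling, 10% DMSO final; reaction started with enzyme after 10 min preincubation. NADH formation followed at OD340; SC1.5 is activator concentration giving 50% increase over DMSO control rate.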

With `CC1(C)OC[C@@H](Cn2ccc(NC(=O)[C@H](Cc3ccccc3Cl)N3CC(Oc4ccccc4Cl)=CC3=O)n2)O1` [Example 188, (S)-2-[4-(2-chloro-phenoxy)-2-oxo-2,5-dihydro-pyrrol-1-yl]-N-[1-((R)-2,2-dimethyl-[1,3]dioxolan-4-yl-methyl)-1H-pyrazol-3-yl]-3-(2-chlorophenyl)-propionamide], the “SC1.5 (concentration of activator that produced a 50% increase in the activity of GK)” value is 1.629 µM.
As for `O=C(Nc1ccn(C[C@@H](O)CO)n1)[C@H](Cc1ccccc1Cl)N1CC(Oc2ccccc2Cl)=CC1=O` [Example 189, (S)-2-[4-(2-chloro-phenoxy)-2-oxo-2,5-dihydro-pyrrol-1-yl]-N-[1-((R)-2,3-dihydroxy-propyl)-1H-pyrazol-3-yl]-3-(2-chlorophenyl)-propionamide], the “SC1.5 (concentration of activator that produced a 50% increase in the activity of GK)” value turned out to be 0.894 µM.
For `CC(C)C[C@@H](C(=O)Nc1ncc(Cl)s1)N1CC(Oc2ccccc2Cl)=CC1=O` [Example 190, (S)-2-[4-(2-chloro-phenoxy)-2-oxo-2,5-dihydro-pyrrol-1-yl]-4-methyl-pentanoic acid (5-chloro-thiazol-2-yl)-amide], the “SC1.5 (concentration of activator that produced a 50% increase in the activity of GK)” value worked out at 0.63 µM.
As for `CC(C)C[C@@H](C(=O)Nc1ccn(C[C@@H]2C[C@H](CC(=O)OC(C)(C)C)OC(C)(C)O2)n1)N1CC(Oc2ccccc2Cl)=CC1=O` [Example 192], the figure is 0.412 µM; as for `CC(C)C[C@@H](C(=O)Nc1ccn(C[C@@H](O)C[C@@H](O)CC(=O)OC(C)(C)C)n1)N1CC(Oc2ccccc2Cl)=CC1=O` [Example 193, (3R,5S)-6-(3-{(S)-2-[4-(2-chloro-phenoxy)-2-oxo-2,5-dihydro-pyrrol-1-yl]-4-methyl-pentanoylamino}-pyrazol-1-yl)-3,5-dihydroxy-hexanoic acid t-butyl ester], 0.307 µM; as for `CC(C)C[C@@H](C(=O)Nc1ccn(C[C@@H](O)C[C@@H](O)CC(=O)O)n1)N1CC(Oc2ccccc2Cl)=CC1=O` [Example 194, (3R,5S)-6-(3-{(S)-2-[4-(2-chloro-phenoxy)-2-oxo-2,5-dihydro-pyrrol-1-yl]-4-methylpentanoylamino}-pyrazol-1-yl)-3,5-dihydroxy-hexanoic acid], 0.695 µM.
In the case of `CC(C)Oc1ccccc1OC1=CC(=O)N([C@@H](CC2CCCCC2)C(=O)Nc2ccn(CC(C)(C)O)n2)C1` [Example 195, (S)-3-cyclohexyl-N-[1-(2-hydroxy-2-methyl-propyl)-1H-pyrazol-3-yl]-2-[4-(2-isopropoxy-phenoxy)-2-oxo-2,5-dihydro-pyrrol-1yl]-propionamide], the “SC1.5 (concentration of activator that produced a 50% increase in the activity of GK)” value was determined as 0.681 µM.
Take `CSc1ccccc1OC1=CC(=O)N([C@@H](CC2CCCCC2)C(=O)Nc2ccn(CC(C)(C)O)n2)C1` [Example 196, (S)-3-cyclohexyl-N-[1-(2-hydroxy-2-methyl-propyl)-1H-pyrazol-3-yl]-2-[4-(2-methylsulfanyl-phenoxy)-2-oxo-2,5-dihydro-pyrrol-1-yl]-propionamide]: the “SC1.5 (concentration of activator that produced a 50% increase in the activity of GK)” value is 0.007 µM.
Turning to `CC(C)(O)Cn1ccc(NC(=O)[C@H](CC2CCCCC2)N2CC(Oc3ccccc3C(C)(C)C)=CC2=O)n1` [Example 197, (S)-2-[4-(2-t-butyl-phenoxy)-2-oxo-2,5-dihydro-pyrrol-1-yl]-3-cyclohexyl-N-[1-(2-hydroxy-2-methyl-propyl)-1H-pyrazol-3-yl]-propionamide], the “SC1.5 (concentration of activator that produced a 50% increase in the activity of GK)” value was 0.892 µM.
Regarding `CCCc1ccccc1OC1=CC(=O)N([C@@H](CC2CCCCC2)C(=O)Nc2ccn(CC(C)(C)O)n2)C1` [Example 198, (S)-3-cyclohexyl-N-[1-(2-hydroxy-2-methyl-propyl)-1H-pyrazol-3-yl]-2-[2-oxo-4-(2-propyl-phenoxy)-2,5-dihydro-pyrrol-1-yl]-propionamide], the “SC1.5 (concentration of activator that produced a 50% increase in the activity of GK)” value worked out at 0.056 µM.
Consider `COc1cccc(OC2=CC(=O)N([C@@H](CC3CCCCC3)C(=O)Nc3ccn(CC(C)(C)O)n3)C2)c1OC` [Example 199, (S)-3-cyclohexyl-2-[4-(2,3-dimethoxy-phenoxy)-2-oxo-2,5-dihydro-pyrrol-1-yl]-N-[1-(2-hydroxy-2-methyl-propyl)-1H-pyrazol-3-yl]-propionamide], for which the “SC1.5 (concentration of activator that produced a 50% increase in the activity of GK)” value was 0.07 µM.
With `CC(C)(O)Cn1ccc(NC(=O)[C@H](CC2CCCCC2)N2CC(Oc3cccc(F)c3F)=CC2=O)n1` [Example 200, (S)-3-cyclohexyl-2-[4-(2,3-difluoro-phenoxy)-2-oxo-2,5-dihydro-pyrrol-1-yl]-N-[1-(2-hydroxy-2-methyl-propyl)-1H-pyrazol-3-yl]-propionamide], the “SC1.5 (concentration of activator that produced a 50% increase in the activity of GK)” value was 0.011 µM.
For `CC(C)(O)Cn1ccc(NC(=O)[C@H](CC2CCCCC2)N2CC(Oc3cc(Cl)ccc3Cl)=CC2=O)n1` [Example 201, (S)-3-cyclohexyl-2-[4-(2,5-dichloro-phenoxy)-2-oxo-2,5-dihydro-pyrrol-1-yl]-N-[1-(2-hydroxy-2-methyl-propyl)-1H-pyrazol-3-yl]-propionamide], the “SC1.5 (concentration of activator that produced a 50% increase in the activity of GK)” value was 0.013 µM.
For `CC(C)(O)Cn1ccc(NC(=O)[C@H](CC2CCCCC2)N2CC(Oc3ccc(Cl)cc3Cl)=CC2=O)n1` [Example 202, (S)-3-cyclohexyl-2-[4-(2,4-dichloro-phenoxy)-2-oxo-2,5-dihydro-pyrrol-1-yl]-N-[1-(2-hydroxy-2-methyl-propyl)-1H-pyrazol-3-yl]-propionamide], the “SC1.5 (concentration of activator that produced a 50% increase in the activity of GK)” value was 0.012 µM.
In the case of `CC(C)(O)Cn1ccc(NC(=O)[C@H](CC2CCCCC2)N2CC(Oc3ccccc3OCc3ccccc3)=CC2=O)n1` [Example 203, (S)-2-[4-(2-benzyloxy-phenoxy)-2-oxo-2,5-dihydro-pyrrol-1-yl]-3-cyclohexyl-N-[1-(2-hydroxy-2-methyl-propyl)-1H-pyrazol-3-yl]-propionamide], the “SC1.5 (concentration of activator that produced a 50% increase in the activity of GK)” value was found to be 0.253 µM.
In the case of `Cc1cccc(OC2=CC(=O)N([C@@H](CC3CCCCC3)C(=O)Nc3ccn(CC(C)(C)O)n3)C2)c1C` [Example 204, (S)-3-cyclohexyl-2-[4-(2,3-dimethyl-phenoxy)-2-oxo-2,5-dihydro-pyrrol-1-yl]-N-[1-(2-hydroxy-2-methyl-propyl)-1H-pyrazol-3-yl]-propionamide], the “SC1.5 (concentration of activator that produced a 50% increase in the activity of GK)” value was found to be 0.012 µM.
The value for `CC(C)(O)Cn1ccc(NC(=O)[C@H](CC2CCCCC2)N2CC(Oc3cccc(Br)c3)=CC2=O)n1` [Example 205, (S)-2-[4-(3-bromo-phenoxy)-2-oxo-2,5-dihydro-pyrrol-1-yl]-3-cyclohexyl-N-[1-(2-hydroxy-2-methyl-propyl)-1H-pyrazol-3-yl]-propionamide] was 0.021 µM; that for `CC(C)(O)Cn1ccc(NC(=O)[C@H](CC2CCCCC2)N2CC(Oc3cccc(F)c3)=CC2=O)n1` [Example 206, (S)-3-cyclohexyl-2-[4-(3-fluoro-phenoxy)-2-oxo-2,5-dihydro-pyrrol-1-yl]-N-[1-(2-hydroxy-2-methyl-propyl)-1H-pyrazol-3-yl]-propionamide] was 0.034 µM.
Take `CC(C)(O)Cn1ccc(NC(=O)[C@H](CC2CCCCC2)N2CC(Oc3cccc(Cl)c3)=CC2=O)n1` [Example 207, (S)-2-[4-(3-chloro-phenoxy)-2-oxo-2,5-dihydro-pyrrol-1-yl]-3-cyclohexyl-N-[1-(2-hydroxy-2-methyl-propyl)-1H-pyrazol-3-yl]-propionamide]: the “SC1.5 (concentration of activator that produced a 50% increase in the activity of GK)” value was 0.018 µM.
The value for `COc1cccc(OC2=CC(=O)N([C@@H](CC3CCCCC3)C(=O)Nc3ccn(CC(C)(C)O)n3)C2)c1` [Example 208, (S)-3-cyclohexyl-N-[1-(2-hydroxy-2-methyl-propyl)-1H-pyrazol-3-yl]-2-[4-(3-methoxy-phenoxy)-2-oxo-2,5-dihydro-pyrrol-1-yl]-propionamide] was 0.012 µM.
The value for `CC(C)(O)Cn1ccc(NC(=O)[C@H](CC2CCCCC2)N2CC(Oc3cccc(C(F)(F)F)c3)=CC2=O)n1` [Example 209, (S)-3-cyclohexyl-N-[1-(2-hydroxy-2-methyl-propyl)-1H-pyrazol-3-yl]-2-[2-oxo-4-(3-trifluoromethyl-phenoxy)-2,5-dihydro-pyrrol-1-yl]-propionamide] was 0.076 µM; that for `Cc1cccc(OC2=CC(=O)N([C@@H](CC3CCCCC3)C(=O)Nc3ccn(CC(C)(C)O)n3)C2)c1` [Example 210, (S)-3-cyclohexyl-N-[1-(2-hydroxy-2-methyl-propyl)-1H-pyrazol-3-yl]-2-(2-oxo-4-m-tolyloxy-2,5-dihydro-pyrrol-1-yl)-propionamide] was 0.018 µM.
